From ChEMBL document CHEMBL4665869, “New thiazolopyrimidine as anticancer agents: Synthesis, biological evaluation, DNA binding, molecular modeling and ADMET study” (Bioorg Med Chem Lett, 2020)

How the values were obtained:
MOLT-4 = assay: Growth inhibition of human MOLT-4 cells at 10 uM relative to control; type: functional; settings: read-out: GI
BT-549 = assay: Growth inhibition of human BT-549 cells at 10 uM relative to control; type: functional; settings: read-out: GI
786-0 = assay: Growth inhibition of human 786-0 cells at 10 uM relative to control; type: functional; settings: read-out: GI
K562 = assay: Growth inhibition of human K562 cells at 10 uM relative to control; type: functional; settings: read-out: GI
HT-29 = assay: Growth inhibition of human HT-29 cells at 10 uM relative to control; type: functional; settings: read-out: GI
OVCAR-8 = assay: Growth inhibition of human OVCAR-8 cells at 10 uM relative to control; type: functional; settings: read-out: GI
SNB-75 = assay: Growth inhibition of human SNB-75 cells at 10 uM relative to control; type: functional; settings: read-out: GI
COLO 205 = assay: Growth inhibition of human COLO 205 cells at 10 uM relative to control; type: functional; settings: read-out: GI
SN12C = assay: Growth inhibition of human SN12C cells at 10 uM relative to control; type: functional; settings: read-out: GI
MDA-MB-231 = assay: Growth inhibition of human MDA-MB-231 cells at 10 uM relative to control; type: functional; settings: read-out: GI
Hs-578T = assay: Growth inhibition of human Hs-578T cells at 10 uM relative to control; type: functional; settings: read-out: GI
HCT-116 = assay: Growth inhibition of human HCT-116 cells at 10 uM relative to control; type: functional; settings: read-out: GI
SR = assay: Growth inhibition of human SR cells at 10 uM relative to control; type: functional; settings: read-out: GI
SK-MEL-2 = assay: Growth inhibition of human SK-MEL-2 cells at 10 uM relative to control; type: functional; settings: read-out: GI
MDA-MB-468 = assay: Growth inhibition of human MDA-MB-468 cells at 10 uM relative to control; type: functional; settings: read-out: GI
HCC 2998 = assay: Growth inhibition of human HCC 2998 cells at 10 uM relative to control; type: functional; settings: read-out: GI
KM12 = assay: Growth inhibition of human KM12 cells at 10 uM relative to control; type: functional; settings: read-out: GI
LOX IMVI = assay: Growth inhibition of human LOX IMVI cells at 10 uM relative to control; type: functional; settings: read-out: GI
SF-295 = assay: Growth inhibition of human SF-295 cells at 10 uM relative to control; type: functional; settings: read-out: GI
ACHN = assay: Growth inhibition of human ACHN cells at 10 uM relative to control; type: functional; settings: read-out: GI
CAKI-1 = assay: Growth inhibition of human CAKI-1 cells at 10 uM relative to control; type: functional; settings: read-out: GI
NCI-H522 = assay: Growth inhibition of human NCI-H522 cells at 10 uM relative to control; type: functional; settings: read-out: GI
M14 = assay: Growth inhibition of human M14 cells at 10 uM relative to control; type: functional; settings: read-out: GI
SF-539 = assay: Growth inhibition of human SF-539 cells at 10 uM relative to control; type: functional; settings: read-out: GI
U-251 = assay: Growth inhibition of human U-251 cells at 10 uM relative to control; type: functional; settings: read-out: GI
IGROV-1 = assay: Growth inhibition of human IGROV-1 cells at 10 uM relative to control; type: functional; settings: read-out: GI
UACC-257 = assay: Growth inhibition of human UACC-257 cells at 10 uM relative to control; type: functional; settings: read-out: GI
SK-MEL-5 = assay: Growth inhibition of human SK-MEL-5 cells at 10 uM relative to control; type: functional; settings: read-out: GI
A549 = assay: Growth inhibition of human A549 cells at 10 uM relative to control; type: functional; settings: read-out: GI
HOP-62 = assay: Growth inhibition of human HOP-62 cells at 10 uM relative to control; type: functional; settings: read-out: GI
HOP-92 = assay: Growth inhibition of human HOP-92 cells at 10 uM relative to control; type: functional; settings: read-out: GI
RXF 393 = assay: Growth inhibition of human RXF 393 cells at 10 uM relative to control; type: functional; settings: read-out: GI
MCF7 = assay: Growth inhibition of human MCF7 cells at 10 uM relative to control; type: functional; settings: read-out: GI
NCI-H460 = assay: Growth inhibition of human NCI-H460 cells at 10 uM relative to control; type: functional; settings: read-out: GI
NCI-H23 = assay: Growth inhibition of human NCI-H23 cells at 10 uM relative to control; type: functional; settings: read-out: GI
UACC-62 = assay: Growth inhibition of human UACC-62 cells at 10 uM relative to control; type: functional; settings: read-out: GI
DNA = assay: Displacement of methyl green from DNA (unknown origin) assessed as DNA intercalation after 24 hrs by colorimetric assay; type: nucleic-acid assay
SW-620 = assay: Growth inhibition of human SW-620 cells at 10 uM relative to control; type: functional; settings: read-out: GI
NCI-H226 = assay: Growth inhibition of human NCI-H226 cells at 10 uM relative to control; type: functional; settings: read-out: GI
HL-60(TB) = assay: Growth inhibition of human HL-60(TB) cells at 10 uM relative to control; type: functional; settings: read-out: GI
A498 = assay: Growth inhibition of human A498 cells at 10 uM relative to control; type: functional; settings: read-out: GI
UO-31 = assay: Growth inhibition of human UO-31 cells at 10 uM relative to control; type: functional; settings: read-out: GI
SK-OV-3 = assay: Growth inhibition of human SK-OV-3 cells at 10 uM relative to control; type: functional; settings: read-out: GI
NCI-H322M = assay: Growth inhibition of human NCI-H322M cells at 10 uM relative to control; type: functional; settings: read-out: GI
OVCAR-5 = assay: Growth inhibition of human OVCAR-5 cells at 10 uM relative to control; type: functional; settings: read-out: GI
SK-MEL-28 = assay: Growth inhibition of human SK-MEL-28 cells at 10 uM relative to control; type: functional; settings: read-out: GI
SNB-19 = assay: Growth inhibition of human SNB-19 cells at 10 uM relative to control; type: functional; settings: read-out: GI
TK-10 = assay: Growth inhibition of human TK-10 cells at 10 uM relative to control; type: functional; settings: read-out: GI
DU-145 = assay: Growth inhibition of human DU-145 cells at 10 uM relative to control; type: functional; settings: read-out: GI
OVCAR-4 = assay: Growth inhibition of human OVCAR-4 cells at 10 uM relative to control; type: functional; settings: read-out: GI
MDA-MB-435 = assay: Growth inhibition of human MDA-MB-435 cells at 10 uM relative to control; type: functional; settings: read-out: GI
RPMI-8226 = assay: Growth inhibition of human RPMI-8226 cells at 10 uM relative to control; type: functional; settings: read-out: GI
CCRF-CEM = assay: Growth inhibition of human CCRF-CEM cells at 10 uM relative to control; type: functional; settings: read-out: GI
SF-268 = assay: Growth inhibition of human SF-268 cells at 10 uM relative to control; type: functional; settings: read-out: GI
HCT-15 = assay: Growth inhibition of human HCT-15 cells at 10 uM relative to control; type: functional; settings: read-out: GI
NCI/ADR-RES = assay: Growth inhibition of human NCI/ADR-RES cells at 10 uM relative to control; type: functional; settings: read-out: GI
Malme-3M = assay: Growth inhibition of human Malme-3M cells at 10 uM relative to control; type: functional; settings: read-out: GI
T47D = assay: Growth inhibition of human T47D cells at 10 uM relative to control; type: functional; settings: read-out: GI

COc1ccc(/C=C/C2=CC(c3ccc(OC)c(OC)c3)N3C=CSC3=N2)cc1OC (stereo not drawn)
11.3%: inhibition of growth at 10 µM (UO-31)
13.8%: inhibition of growth at 10 µM (SR)
< 10%: inhibition of growth at 10 µM (MOLT-4) | inhibition of growth at 10 µM (BT-549) | inhibition of growth at 10 µM (786-0) | inhibition of growth at 10 µM (K562) | inhibition of growth at 10 µM (HT-29) | inhibition of growth at 10 µM (OVCAR-8) | inhibition of growth at 10 µM (SNB-75) | inhibition of growth at 10 µM (COLO 205) | inhibition of growth at 10 µM (SN12C) | inhibition of growth at 10 µM (MDA-MB-231) | inhibition of growth at 10 µM (Hs-578T) | inhibition of growth at 10 µM (HCT-116) | inhibition of growth at 10 µM (SK-MEL-2) | inhibition of growth at 10 µM (MDA-MB-468) | inhibition of growth at 10 µM (HCC 2998) | inhibition of growth at 10 µM (KM12) | inhibition of growth at 10 µM (LOX IMVI) | inhibition of growth at 10 µM (SF-295) | inhibition of growth at 10 µM (ACHN) | inhibition of growth at 10 µM (CAKI-1) | inhibition of growth at 10 µM (NCI-H522) | inhibition of growth at 10 µM (M14) | inhibition of growth at 10 µM (SF-539) | inhibition of growth at 10 µM (U-251) | inhibition of growth at 10 µM (IGROV-1) | inhibition of growth at 10 µM (SK-MEL-5) | inhibition of growth at 10 µM (A549) | inhibition of growth at 10 µM (HOP-62) | inhibition of growth at 10 µM (HOP-92) | inhibition of growth at 10 µM (RXF 393) | inhibition of growth at 10 µM (MCF7) | inhibition of growth at 10 µM (NCI-H460) | inhibition of growth at 10 µM (NCI-H23) | inhibition of growth at 10 µM (UACC-62) | inhibition of growth at 10 µM (SW-620) | inhibition of growth at 10 µM (NCI-H226) | inhibition of growth at 10 µM (HL-60(TB)) | inhibition of growth at 10 µM (SK-OV-3) | inhibition of growth at 10 µM (NCI-H322M) | inhibition of growth at 10 µM (OVCAR-5) | inhibition of growth at 10 µM (SK-MEL-28) | inhibition of growth at 10 µM (SNB-19) | inhibition of growth at 10 µM (TK-10) | inhibition of growth at 10 µM (DU-145) | inhibition of growth at 10 µM (OVCAR-4) | inhibition of growth at 10 µM (MDA-MB-435) | inhibition of growth at 10 µM (RPMI-8226) | inhibition of growth at 10 µM (CCRF-CEM) | inhibition of growth at 10 µM (SF-268) | inhibition of growth at 10 µM (HCT-15) | inhibition of growth at 10 µM (NCI/ADR-RES) | inhibition of growth at 10 µM (Malme-3M) | inhibition of growth at 10 µM (T47D)
12.8%: inhibition of growth at 10 µM (UACC-257)
30.05 µg/mL: IC50 (DNA)
25.6%: inhibition of growth at 10 µM (A498)
